Source: ChEMBL document CHEMBL2321811, “Conjugates of modified cryptophycins and RGD-peptides enter target cells by endocytosis” (J Med Chem, 2013)

Columns and labels:
[1] = Cytotoxicity against human KBV1 cells by resazurin reduction assay; format: functional, cell-based; conditions: KB-V1
[2] = Cytotoxicity against human KB-3-1 cells by resazurin reduction assay; format: functional, cell-based
[3] = Binding affinity to integrin in human WM-115 cells after 30 mins by immobilized vitronectin-based competitive cell adhesion assay

IC50 [3] [nM] | Structure (SMILES) | IC50 [1] [nM] | IC50 [2] [nM]
 | C=CCOC(=O)CCC[C@@H]1CNC(=O)[C@@H](Cc2ccc(OC)c(Cl)c2)NC(=O)/C=C/C[C@@H]([C@H](C)[C@H]2O[C@@H]2c2ccccc2)OC(=O)[C@H](CC(C)C)OC1=O | 45.2 | 0.433
 | COc1ccc(C[C@H]2NC(=O)/C=C/C[C@@H]([C@H](C)[C@H]3O[C@@H]3c3ccccc3)OC(=O)[C@H](CC(C)C)OC(=O)[C@@H](CCCn3cc(C(C)(C)O)nn3)CNC2=O)cc1Cl | 3020 | 0.312
 | COc1ccc(C[C@H]2NC(=O)/C=C/C[C@@H]([C@H](C)[C@H]3O[C@@H]3c3ccccc3)OC(=O)[C@H](CC(C)C)OC(=O)[C@@H](CCN=[N+]=[N-])CNC2=O)cc1Cl | 14.1 | 0.0546
500 | CC(C)[C@@H]1NC(=O)[C@@H](Cc2ccccc2)NC(=O)[C@H](CC(=O)O)NC(=O)CNC(=O)[C@H](CCCN=C(N)N)NC1=O [CYCLORGDFV] |  | 
 | COc1ccc(C[C@H]2NC(=O)/C=C/C[C@@H]([C@H](C)[C@H]3O[C@@H]3c3ccccc3)OC(=O)[C@H](CC(C)C)OC(=O)C(C)(C)CNC2=O)cc1Cl [CRYPTOPHYCIN 52] | 0.26 | 0.0155
 | C=CCOCCC[C@@H]1CNC(=O)[C@@H](Cc2ccc(OC)c(Cl)c2)NC(=O)/C=C/C[C@@H]([C@H](C)[C@H]2O[C@@H]2c2ccccc2)OC(=O)[C@H](CC(C)C)OC1=O | 26.6 | 0.149
 | COc1ccc(C[C@H]2NC(=O)/C=C/C[C@@H]([C@H](C)[C@H]3O[C@@H]3c3ccccc3)OC(=O)[C@H](CC(C)C)OC(=O)[C@@H](CCCN=[N+]=[N-])CNC2=O)cc1Cl | 114 | 11.5
 | COc1ccc(C[C@H]2NC(=O)/C=C/C[C@@H]([C@H](C)[C@H]3O[C@@H]3c3ccccc3)OC(=O)[C@H](CC(C)C)OC(=O)[C@H](CCCN=[N+]=[N-])CNC2=O)cc1Cl | 18.4 | 0.112
 | C=CCOC(=O)C[C@@H]1CNC(=O)[C@@H](Cc2ccc(OC)c(Cl)c2)NC(=O)/C=C/C[C@@H]([C@H](C)[C@H]2O[C@@H]2c2ccccc2)OC(=O)[C@H](CC(C)C)OC1=O | 2.7 | 0.0961
 | COc1ccc(C[C@H]2NC(=O)/C=C/C[C@@H]([C@H](C)[C@H]3O[C@@H]3c3ccccc3)OC(=O)[C@H](CC(C)C)OC(=O)[C@H](CCCn3cc(C(C)(C)O)nn3)CNC2=O)cc1Cl | 411 | 0.101
 | COc1ccc(C[C@H]2NC(=O)/C=C/C[C@@H]([C@H](C)[C@H]3O[C@@H]3c3ccccc3)OC(=O)[C@H](CC(C)C)OC(=O)[C@@H](CCCn3cc(C[C@@H]4NC(=O)[C@@H](Cc5ccccc5)NC(=O)[C@H](CC(=O)O)NC(=O)CNC(=O)[C@H](CCCNC(=N)N)NC4=O)nn3)CNC2=O)cc1Cl | 1800 | 55.8
 | COc1ccc(C[C@H]2NC(=O)/C=C/C[C@@H]([C@H](C)[C@H]3O[C@@H]3c3ccccc3)OC(=O)[C@H](CC(C)C)OC(=O)[C@H](CCN=[N+]=[N-])CNC2=O)cc1Cl | 2.1 | 0.0216
 | C=CCOCCC[C@H]1CNC(=O)[C@@H](Cc2ccc(OC)c(Cl)c2)NC(=O)/C=C/C[C@@H]([C@H](C)[C@H]2O[C@@H]2c2ccccc2)OC(=O)[C@H](CC(C)C)OC1=O | 38 | 0.0527
 | C=CCOC(=O)C[C@H]1CNC(=O)[C@@H](Cc2ccc(OC)c(Cl)c2)NC(=O)/C=C/C[C@@H]([C@H](C)[C@H]2O[C@@H]2c2ccccc2)OC(=O)[C@H](CC(C)C)OC1=O | 6 | 0.0083
 | COc1ccc(C[C@H]2NC(=O)/C=C/C[C@@H]([C@H](C)[C@H]3O[C@@H]3c3ccccc3)OC(=O)[C@H](CC(C)C)OC(=O)[C@H](CCCCN=[N+]=[N-])CNC2=O)cc1Cl | 23.5 | 0.249
